Reference: patent publication US12371441B2, “Siderophore cephalosporin conjugates and uses thereof” (ARIVA MED GMBH, priority 2019, dated 2025)
pIC50: −log10 of the molar value. Converted amounts (≈) assume the structure as drawn. Read-outs that look alike come from different tables or passages of the source.

Experiments:
[1] = tested on: Klebsiella pneumoniae ATCC 43816; assay: MIC by standard broth microdilution (CLSI), Klebsiella pneumoniae; type: cell-based
Protocol: (§1) The in vitro activity against bacteria was determined by standard broth microdilution according to the Clinical and Laboratory Standards Institute CLSI document (Performance Standards for Antimicrobial Susceptibility Testing) M100Ed29E (2019) and (Methods for Dilution Antimicrobial Susceptibility Test for Bacteria That Grow Aerobically) M07Ed11 (2018). The data were obtained using cation-adjusted Mueller Hinton broth medium (CAMHB), and additionally iron-depleted CAMHB medium (ID-CAMHB) for compounds with iron-chelating activity.

[2] = Chromeazurol assay (iron-chelating property); type: physicochemical; conditions: for pIC50: absorbance at 630 nm
Protocol: The iron-chelating property was determined by the chromeazurol assay according to Schwyn B., et al, Universal Chemical Assay for the Detection and Determination of Siderophores, 1987. Analytical Biochemistry 160: 47-56. The assay uses the affinity of chrome azurol S/iron(III)/hexadecyltrimethylamimonium bromide for iron(III). When a strong chelator removes the iron from this dye, its color turns from blue to orange and the absorbance measured at 630 nm is indicative for the chelating properties of a siderophore.

[3] = tested on: Escherichia coli ATCC 25922; assay: MIC by standard broth microdilution (CLSI), Escherichia coli; type: cell-based
Protocol: as §1

[4] = tested on: Pseudomonas aeruginosa ATCC 27853; assay: MIC by standard broth microdilution (CLSI), Pseudomonas aeruginosa; type: cell-based
Protocol: as §1

[5] = tested on: Acinetobacter baumannii ATCC 15473; assay: MIC by standard broth microdilution (CLSI), Acinetobacter baumannii; type: cell-based
Protocol: as §1

[6] = tested on: Burkholderia cepacia CF and non-CF isolates, n = 5; assay: MIC by standard broth microdilution (CLSI), Burkholderia cepacia isolates; type: cell-based
Protocol: as §1

[7] = ATCC43816, KP ATCC 43816, cation-adjusted Mueller Hinton broth (CAMHB), read-out: MIC in CAMHB medium
[8] = ATCC43816, KP ATCC 43816, iron-depleted CAMHB (value in parentheses), read-out: MIC in ID-CAMHB medium
[9] = ATCC25922, EC ATCC 25922, cation-adjusted Mueller Hinton broth (CAMHB), read-out: MIC in CAMHB medium
[10] = ATCC25922, EC ATCC 25922, iron-depleted CAMHB (value in parentheses), read-out: MIC in ID-CAMHB medium
[11] = ATCC27853, PA ATCC 27853, cation-adjusted Mueller Hinton broth (CAMHB), read-out: MIC in CAMHB medium
[12] = ATCC27853, PA ATCC 27853, iron-depleted CAMHB (value in parentheses), read-out: MIC in ID-CAMHB medium
[13] = ATCC15473, AB ATCC 15473, cation-adjusted Mueller Hinton broth (CAMHB), read-out: MIC in CAMHB medium
[14] = ATCC15473, AB ATCC 15473, iron-depleted CAMHB (value in parentheses), read-out: MIC in ID-CAMHB medium
[15] = read-out: MIC in ID-CAMHB medium

CC(C)(O/N=C(\C(=O)NC1C(=O)N2C(C(=O)O)=C(C=NO[C@H]3C[C@H](NC(=O)c4ccc(O)c(O)c4Cl)C3)CSC12)c1csc(N)n1)C(=O)O (relative stereo) [Example 7, 7-[[(2Z)-2-(2-aminothiazol-4-yl)-2-(1-carboxy-1-methyl-ethoxy)imino-acetyl]amino]-3-[[3-[(2-chloro-3,4-dihydroxy-benzoyl)amino]- trans-cyclobutoxy]iminomethyl]-8-oxo-5-thia-1-azabicyclo[4.2.0]oct-2-ene-2-carboxylic acid]
MIC [1, 7]: 0.12 mg/L (≈ 0.163 µM)
MIC [1, 8]: 0.5 mg/L (≈ 0.677 µM)
pIC50 [2]: 5.33
MIC [3, 9]: 0.5 mg/L (≈ 0.677 µM)
MIC [3, 10]: 0.5 mg/L (≈ 0.677 µM)
MIC [4, 11]: 2 mg/L (≈ 2.71 µM)
MIC [4, 12]: 1 mg/L (≈ 1.35 µM)
MIC [5, 13]: 2 mg/L (≈ 2.71 µM)
MIC [5, 14]: 1 mg/L (≈ 1.35 µM)
MIC ([6]; read-out: MIC in CAMHB medium): 0.03 to 0.12 mg/L (≈ 0.0406 to 0.163 µM)
MIC [6, 15]: 0.03 to 0.12 mg/L (≈ 0.0406 to 0.163 µM)

CC(C)(O/N=C(\C(=O)N[C@@H]1C(=O)N2C(C(=O)[O-])=C(C[N+]3(CCNC(=O)c4ccc(O)c(O)c4Cl)CCCC3)CS[C@H]12)c1csc(N)n1)C(=O)O [Cefiderocol, cefiderocol, reference compound]
MIC [1, 7]: 2 mg/L (≈ 2.66 µM)
MIC [1, 8]: 0.5 mg/L (≈ 0.665 µM)
pIC50 [2]: 4.16
MIC [3, 9]: 0.25 mg/L (≈ 0.332 µM)
MIC [3, 10]: 0.25 mg/L (≈ 0.332 µM)
MIC [4, 11]: 1 mg/L (≈ 1.33 µM)
MIC [4, 12]: 0.5 mg/L (≈ 0.665 µM)
MIC [5, 13]: 0.25 mg/L (≈ 0.332 µM)
MIC [5, 14]: 0.12 mg/L (≈ 0.16 µM)
MIC ([6]; read-out: MIC in CAMHB medium): ≤ 0.03 mg/L
MIC [6, 15]: ≤ 0.03 mg/L

CC(C)(O/N=C(\C(=O)N[C@@H]1C(=O)N2C(C(=O)[O-])=C(C[n+]3ccccc3)CS[C@H]12)c1csc(N)n1)C(=O)O [Ceftazidime, reference compound]
MIC [1, 7]: 0.12 mg/L (≈ 0.22 µM)
pIC50 [2]: < 4.00
MIC [3, 9]: 0.12 mg/L (≈ 0.22 µM)
MIC [4, 11]: 2 mg/L (≈ 3.66 µM)
MIC [5, 13]: 4 mg/L (≈ 7.32 µM)
MIC ([6]; BC CF and non-CF isolates, n = 5 (MIC range), CAMHB, read-out: MIC in CAMHB medium): 4 to 16 mg/L (≈ 7.32 to 29.3 µM)

Cn1c(N)c(NC(=O)NCCN)c[n+]1CC1=C(C(=O)O)N2C(=O)[C@@H](NC(=O)/C(=N\OC(C)(C)C(=O)[O-])c3nsc(N)n3)[C@H]2SC1 [Ceftolozane, reference compound]
MIC [1, 7]: 0.25 mg/L (≈ 0.375 µM)
pIC50 [2]: < 4.00
MIC [3, 9]: 0.25 mg/L (≈ 0.375 µM)
MIC [4, 11]: 0.5 mg/L (≈ 0.75 µM)
MIC [5, 13]: 2 mg/L (≈ 3 µM)
MIC ([6]; read-out: MIC in CAMHB medium): 2 to 8 mg/L (≈ 3 to 12 µM)

CC(C)(O/N=C(\C(=O)N[C@@H]1C(=O)N2C(C(=O)O)=C(C=NOCc3cc(=O)c(O)cn3O)CS[C@H]12)c1csc(N)n1)C(=O)O [Example 1, (6R,7R)-7-[[(2Z)-2-(2-aminothiazol-4-yl)-2-(1-carboxy-1-methyl-ethoxy)imino-acetyl]amino]-3-[(1,5-dihydroxy-4-oxo-2-pyridyl)methoxyiminomethyl]-8-oxo-5-thia-1-azabicyclo[4.2.0]oct-2-ene-2-carboxylic acid]
MIC [1, 7]: ≤ 0.03 mg/L
MIC [1, 8]: 0.25 mg/L (≈ 0.392 µM)
pIC50 [2]: 5.14
MIC [3, 9]: 0.12 mg/L (≈ 0.188 µM)
MIC [3, 10]: 0.25 mg/L (≈ 0.392 µM)
MIC [4, 11]: 1 mg/L (≈ 1.57 µM)
MIC [4, 12]: 0.25 mg/L (≈ 0.392 µM)
MIC [5, 13]: 2 mg/L (≈ 3.14 µM)
MIC [5, 14]: 0.5 mg/L (≈ 0.784 µM)
MIC ([6]; read-out: MIC in CAMHB medium): 0.03 to 0.06 mg/L (≈ 0.0471 to 0.0941 µM)
MIC [6, 15]: 0.03 to 0.12 mg/L (≈ 0.0471 to 0.188 µM)

CC(C)(O/N=C(\C(=O)N[C@@H]1C(=O)N2C(C(=O)O)=C(C=NOCc3cc(=O)c(O)cn3O)CS[C@H]12)c1nsc(N)n1)C(=O)O [Example 2, (6R,7R)-7-[[(2Z)-2-(5-amino-1,2,4-thiadiazol-3-yl)-2-(1-carboxy-1-methyl-ethoxy)imino-acetyl]amino]-3-[(1,5-dihydroxy-4-oxo-2-pyridyl)methoxyiminomethyl]-8-oxo-5-thia-1-azabicyclo[4.2.0]oct-2-ene-2-carboxylic acid]
MIC [1, 7]: 0.06 mg/L (≈ 0.094 µM)
pIC50 [2]: 5.02
MIC [3, 9]: 0.06 mg/L (≈ 0.094 µM)
MIC [4, 11]: 0.5 mg/L (≈ 0.783 µM)
MIC [4, 12]: 0.12 mg/L (≈ 0.188 µM)
MIC [5, 13]: 1 mg/L (≈ 1.57 µM)
MIC ([6]; read-out: MIC in CAMHB medium): 0.03 to 0.5 mg/L (≈ 0.047 to 0.783 µM)
MIC [6, 15]: 0.03 to 0.5 mg/L (≈ 0.047 to 0.783 µM)

Nc1nc(/C(=N/OCF)C(=O)N[C@@H]2C(=O)N3C(C(=O)O)=C(C=NOCc4cc(=O)c(O)cn4O)CS[C@H]23)ns1 [Example 3, (6R,7R)-7-[[(2Z)-2-(5-amino-1,2,4-thiadiazol-3-yl)-2-(fluoromethoxyimino)acetyl]amino]-3-[(1,5-dihydroxy-4-oxo-2-pyridyl)methoxyiminomethyl]-8-oxo-5-thia-1-azabicyclo[4.2.0]oct-2-ene-2-carboxylic acid]
MIC [1, 7]: ≤ 0.03 mg/L
MIC [1, 8]: ≤ 0.03 mg/L
pIC50 [2]: 5.10
MIC [3, 9]: ≤ 0.03 mg/L
MIC [3, 10]: ≤ 0.03 mg/L
MIC [4, 11]: 4 mg/L (≈ 6.84 µM)
MIC [4, 12]: 0.5 mg/L (≈ 0.855 µM)
MIC [5, 13]: 8 mg/L (≈ 13.7 µM)
MIC [5, 14]: 16 mg/L (≈ 27.4 µM)

CC(C)(O/N=C(\C(=O)NC1C(=O)N2C(C(=O)O)=C(C=NOCCNC(=O)c3ccc(O)c(O)c3Cl)CSC12)c1csc(N)n1)C(=O)O (stereo not shown) [Example 4, 7-[[(2Z)-2-(2-aminothiazol-4-yl)-2-(1-carboxy-1-methyl-ethoxy)imino-acetyl]amino]-3-[2-[(2-chloro-3,4-dihydroxy-benzoyl)amino]ethoxyiminomethyl]-8-oxo-5-thia-1-azabicyclo[4.2.0]oct-2-ene-2-carboxylic acid]
MIC [1, 7]: 0.06 mg/L (≈ 0.0843 µM)
MIC [1, 8]: 0.06 mg/L (≈ 0.0843 µM)
pIC50 [2]: 5.37
iron-chelating activity compared with cefiderocol ([2]; versus the one measured for cefiderocol (table 1)): an order of magnitude stronger
MIC [3, 9]: 0.25 mg/L (≈ 0.351 µM)
MIC [3, 10]: 0.25 mg/L (≈ 0.351 µM)
MIC [4, 11]: 2 mg/L (≈ 2.81 µM)
MIC [4, 12]: 0.5 mg/L (≈ 0.702 µM)
MIC [5, 13]: 4 mg/L (≈ 5.62 µM)
MIC [5, 14]: 1 mg/L (≈ 1.4 µM)
MIC ([6]; read-out: MIC in CAMHB medium): 0.03 to 0.12 mg/L (≈ 0.0421 to 0.169 µM)
MIC [6, 15]: 0.03 to 0.06 mg/L (≈ 0.0421 to 0.0843 µM)

CC(C)(O/N=C(\C(=O)NC1C(=O)N2C(C(=O)O)=C(C=NOCCNC(=O)c3ccc(O)c(O)c3Cl)CSC12)c1nsc(N)n1)C(=O)O (stereo not shown) [Example 5, 7-[[(2Z)-2-(5-amino-1,2,4-thiadiazol-3-yl)-2-(1-carboxy-1-methyl-ethoxy)imino-acetyl]amino]-3-[2-[(2-chloro-3,4-dihydroxy-benzoyl)amino]ethoxyiminomethyl]-8-oxo-5-thia-1-azabicyclo[4.2.0]oct-2-ene-2-carboxylic acid]
MIC [1, 7]: 0.5 mg/L (≈ 0.701 µM)
MIC [1, 8]: 1 mg/L (≈ 1.4 µM)
pIC50 [2]: 5.19
MIC [3, 9]: 0.25 mg/L (≈ 0.351 µM)
MIC [3, 10]: 0.25 mg/L (≈ 0.351 µM)
MIC [4, 11]: 2 mg/L (≈ 2.8 µM)
MIC [4, 12]: 0.5 mg/L (≈ 0.701 µM)
MIC [5, 13]: 1 mg/L (≈ 1.4 µM)
MIC [5, 14]: 0.5 mg/L (≈ 0.701 µM)
MIC ([6]; read-out: MIC in CAMHB medium): 0.03 to 0.12 mg/L (≈ 0.0421 to 0.168 µM)
MIC [6, 15]: 0.03 to 0.12 mg/L (≈ 0.0421 to 0.168 µM)

Nc1nc(/C(=N/OCF)C(=O)NC2C(=O)N3C(C(=O)O)=C(C=NOCCNC(=O)c4ccc(O)c(O)c4Cl)CSC23)ns1 (stereo not shown) [Example 6, 7-[[(2Z)-2-(5-amino-1,2,4-thiadiazol-3-yl)-2-(fluoromethoxyimino)-acetyl]amino]-3-[2-[(2-chloro-3,4-dihydroxy-benzoyl)amino]ethoxyiminomethyl]-8-oxo-5-thia-1-azabicyclo[4.2.0]oct-2-ene-2-carboxylic acid]
MIC [1, 7]: ≤ 0.03 mg/L
MIC [1, 8]: ≤ 0.03 mg/L
pIC50 [2]: 5.19
MIC [3, 9]: 0.25 mg/L (≈ 0.379 µM)
MIC [3, 10]: 0.12 mg/L (≈ 0.182 µM)
MIC [4, 11]: 4 mg/L (≈ 6.07 µM)
MIC [4, 12]: 1 mg/L (≈ 1.52 µM)
MIC [5, 13]: 4 mg/L (≈ 6.07 µM)
MIC [5, 14]: 4 mg/L (≈ 6.07 µM)

CC(C)(O/N=C(\C(=O)NC1C(=O)N2C(C(=O)O)=C(C=NO[C@H]3CCN(C(=O)c4ccc(O)c(O)c4Cl)C3)CSC12)c1csc(N)n1)C(=O)O (stereo partly drawn) [Example 8, 7-[[(2Z)-2-(2-aminothiazol-4-yl)-2-(1-carboxy-1-methyl-ethoxy)imino-acetyl]amino]-3-{[(3S)-1-(2-chloro-3,4-dihydroxy-benzoyl)pyrrolidine-3-yl]oxyiminomethyl}-8-oxo-5-thia-1-azabicyclo[4.2.0]oct-2-ene-2-carboxylic acid]
MIC [1, 7]: < 0.03 mg/L
MIC [1, 8]: < 0.03 mg/L
pIC50 [2]: 5.25
MIC [3, 9]: 0.12 mg/L (≈ 0.163 µM)
MIC [3, 10]: 0.12 mg/L (≈ 0.163 µM)
MIC [4, 11]: 1 mg/L (≈ 1.35 µM)
MIC [4, 12]: 0.25 mg/L (≈ 0.339 µM)
MIC [5, 13]: 0.5 mg/L (≈ 0.677 µM)
MIC [5, 14]: 0.5 mg/L (≈ 0.677 µM)
